In experiment [1] the test system is SDMA signal (PRMT5 inhibition) in HCT116 MTAP-deleted cells. Briefly: Symmetric di-methyl arginine image-based high content screen assay (SDMA assay), HCT116 MTAP-deleted. In kind it is cell-based. The settings on record: SDMA assay; for pEC50: Homo sapiens, HCT-116, 72 h, 3 days of treatment, cell line not given, taken as HCT116 MTAP-deleted, read-out: EC50 (SDMA assay); for EC50 selectivity (SDMA assay): taken as HCT116 WT versus MTAP-deleted. The method in brief: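 HCT116 MTAP-deleted cells treated with compound until Day 3, then formalin-fixed, permeabilized and immunostained for SDMA, with DAPI nuclear counterstain. Imaged by high-content microscopy; SDMA read-out is mean Alexa 488 intensity per DAPI-defined cell, reflecting PRMT5 inhibition.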

In experiment [2] the test system is HCT116 MTAP-deleted cells. Briefly: Cell viability assay (CellTiter-Glo, 7 days), HCT116 MTAP-deleted. Conditions: Homo sapiens, HCT-116, 168 h. On the technique in general: Cellular ATP, detected with luciferase, serves as a proxy for viable cell number.

pEC50: −log10 of the molar value. A value given as a limit tells only on which side of the number the result lay.

Take `Cn1ncc2c(N)nc3ccc(C(=O)N(Cc4ccc(-c5cnn(C(F)(F)F)c5)cn4)N4CCCCC4=O)cc3c21` [Example 161, 4-amino-1-methyl-N-(2-oxopiperidin-1-yl)-N-((5-(1-(trifluoromethyl)-1H-pyrazol-4-yl)pyridin-2-yl)methyl)-1H-pyrazolo[4,3-c]quinoline-8-carboxamide]: in experiment [1], the pEC50 (in general, the negative decadic logarithm of the EC50, by convention in mol/L) is 8.30 to 9.00 and the “EC50 selectivity (SDMA assay)” value was 51. Further, the CC50 – broadly, the concentration that lowers cell viability or growth by half – in experiment [2] was below 100 nM.
With `CN(C(=O)C1CCC1)N(Cc1ccc(C(F)(F)F)nn1)C(=O)c1cc2c(cc1F)nc(N)c1cnn(C)c12` [Example 162, 4-amino-N′-(cyclobutanecarbonyl)-7-fluoro-N′,1-dimethyl-N-((6-(trifluoromethyl)pyridazin-3-yl)methyl)-1H-pyrazolo[4,3-c]quinoline-8-carbohydrazide], in experiment [1], the negative-log EC50 (pEC50) was above 9.00 and the “EC50 selectivity (SDMA assay)” value worked out at 127. Also, the half-maximal cytotoxic concentration (CC50) in experiment [2] was below 100 nM.
For `CN(C(=O)c1ncccn1)N(Cc1ccc(C(F)(F)F)cn1)C(=O)c1ccc2nc(N)c3cnn(C)c3c2c1` [Example 163, 4-amino-N′,1-dimethyl-N′-(pyrimidine-2-carbonyl)-N-((5-(trifluoromethyl)pyridin-2-yl)methyl)-1H-pyrazolo[4,3-c]quinoline-8-carbohydrazide] the same measures were 8.30 to 9.00, 145 and below 100 nM.
On to `CC(=O)N(C)N(Cc1ccc2c(cnn2C)c1)C(=O)c1ccc2nc(N)c3cnn(C)c3c2c1` [Example 164, N′-acetyl-4-amino-N′,1-dimethyl-N-((1-methyl-1H-indazol-5-yl)methyl)-1H-pyrazolo[4,3-c]quinoline-8-carbohydrazide], for which, in experiment [1], the pEC50 is 8.30 to 9.00 and the “EC50 selectivity (SDMA assay)” value turned out to be 163. In experiment [2], this compound yielded a 50% cytotoxic concentration (CC50) below 100 nM.
`CN(C(=O)c1ncco1)N(Cc1ccc(C(F)(F)F)cc1F)C(=O)c1ccc2nc(N)c3cnn(C)c3c2c1` [Example 165, N′-(4-amino-1-methyl-1H-pyrazolo[4,3-c]quinoline-8-carbonyl)-N′-(2-fluoro-4-(trifluoromethyl)benzyl)-N-methyloxazole-2-carbohydrazide]: in experiment [1], the negative-log EC50 (pEC50) is above 9.00 and the “EC50 selectivity (SDMA assay)” value came to 11. Also, in experiment [2], the CC50 was below 100 nM.
The corresponding values for `CN(C(=O)c1cocn1)N(Cc1ccc(C(F)(F)F)cc1F)C(=O)c1ccc2nc(N)c3cnn(C)c3c2c1` [Example 166, N′-(4-amino-1-methyl-1H-pyrazolo[4,3-c]quinoline-8-carbonyl)-N′-(2-fluoro-4-(trifluoromethyl)benzyl)-N-methyloxazole-4-carbohydrazide] are above 9.00, 21 and below 100 nM.
Take `CC(=O)N(C)N(Cc1ccc(C(F)(F)F)cn1)C(=O)c1cc2c3c(c(N)nc2cc1F)[C@@H](C)OC3` [Example 167, (3R)—N′-acetyl-4-amino-7-fluoro-N′,3-dimethyl-N-[[5-(trifluoromethyl)-2-pyridyl]methyl]-1,3-dihydrofuro[3,4-c]quinoline-8-carbohydrazide]: in experiment [1], the negative-log EC50 (pEC50) was above 9.00 and the “EC50 selectivity (SDMA assay)” value is listed as 10. The compound also returned a cytotoxic concentration (CC50) in experiment [2] below 100 nM.
The corresponding values for `CC(=O)N(C)N(Cc1ccc(C(F)(F)F)cn1)C(=O)c1ccc2nc(N)c3c(c2c1)COC3` [Example 168, N′-acetyl-4-amino-N′-methyl-N-[[5-(trifluoromethyl)-2-pyridyl]methyl]-1,3-dihydrofuro[3,4-c]quinoline-8-carbohydrazide] are above 9.00, 97 and below 100 nM.
Consider `Cn1ncc2c(N)nc3ccc(C(=O)N(Cc4nc5ccccc5s4)N4CCC(F)(F)C4=O)cc3c21` [Example 169, 4-amino-N-(1,3-benzothiazol-2-ylmethyl)-N-(3,3-difluoro-2-oxo-pyrrolidin-1-yl)-1-methyl-pyrazolo[4,3-c]quinoline-8-carboxamide], for which, in experiment [1], the negative logarithm of the EC50 (pEC50) was 8.30 to 9.00 and the “EC50 selectivity (SDMA assay)” value was 14. In experiment [2], this compound showed a half-maximal cytotoxic concentration (CC50) below 100 nM.
For `Cn1ncc2c(N)nc3ccc(C(=O)N(Cc4ccc(C(F)(F)F)cn4)N4CC5(CC5)CC4=O)cc3c21` [Example 170, 4-amino-1-methyl-N-(6-oxo-5-azaspiro[2.4]heptan-5-yl)-N-((5-(trifluoromethyl)pyridin-2-yl)methyl)-1H-pyrazolo[4,3-c]quinoline-8-carboxamide] the same measures were above 9.00, 146 and below 100 nM.
`Cn1ncc2c(N)nc3ccc(C(=O)N(Cc4ccc(C(F)(F)F)cn4)N4CCC(F)(F)C4=O)cc3c21` [Example 171, 4-amino-N-(3,3-difluoro-2-oxo-pyrrolidin-1-yl)-1-methyl-N-[[5-(trifluoromethyl)-2-pyridyl]methyl]pyrazolo[4,3-c]quinoline-8-carboxamide]: in experiment [1], the pEC50 is above 9.00 and the “EC50 selectivity (SDMA assay)” value is reported as 571. The same compound gave a CC50 in experiment [2] below 100 nM.
Turning to `CN(CC1CCC1)N(Cc1ccc(C(F)(F)F)cn1)C(=O)c1ccc2nc(N)c3cnn(C)c3c2c1` [Example 172, 4-amino-N′-(cyclobutylmethyl)-N′,1-dimethyl-N-[[5-(trifluoromethyl)-2-pyridyl]methyl]pyrazolo[4,3-c]quinoline-8-carbohydrazide], in experiment [1], the negative logarithm of the EC50 (pEC50) was 8.30 to 9.00 and the “EC50 selectivity (SDMA assay)” value is given as 153. Besides, in experiment [2], the half-maximal cytotoxic concentration (CC50) was below 100 nM.
For `CN(CC1CC1)N(Cc1ccc(C(F)(F)F)cn1)C(=O)c1ccc2nc(N)c3cnn(C)c3c2c1` [Example 173, 4-amino-N′-(cyclopropylmethyl)-N′,1-dimethyl-N-[[5-(trifluoromethyl)-2-pyridyl]methyl]pyrazolo[4,3-c]quinoline-8-carbohydrazide] the same measures were above 9.00, 117 and below 100 nM.
Turning to `CN(CC1CC1)N(Cc1ccc(C(F)(F)F)cn1)C(=O)c1cc2c(cc1F)nc(N)c1cnn(C)c12` [Example 174, 4-amino-N′-(cyclopropylmethyl)-7-fluoro-N′,1-dimethyl-N-[[5-(trifluoromethyl)-2-pyridyl]methyl]pyrazolo[4,3-c]quinoline-8-carbohydrazide], in experiment [1], the negative-log EC50 (pEC50) was above 9.00 and the “EC50 selectivity (SDMA assay)” value is 24. In experiment [2], this compound had a 50% cytotoxic concentration (CC50) below 100 nM.
For the compound `CN(C(=O)c1ccnn1C)N(Cc1ccc(C(F)(F)F)cn1)C(=O)c1ccc2nc(N)c3cnn(C)c3c2c1` [Example 175, 4-amino-N′,1-dimethyl-N′-(1-methyl-1H-pyrazole-5-carbonyl)-N-((5-(trifluoromethyl)pyridin-2-yl)methyl)-1H-pyrazolo[4,3-c]quinoline-8-carbohydrazide], in experiment [1], the negative-log EC50 (pEC50) is 8.30 to 9.00 and the “EC50 selectivity (SDMA assay)” value is given as 19. In experiment [2], the CC50 was below 100 nM.
The corresponding values for `CC(=O)N(C)N(Cc1ccc(C#CC(C)(C)S(C)(=O)=O)cc1F)C(=O)c1ccc2nc(N)c3cnn(C)c3c2c1` [Example 176, N′-acetyl-4-amino-N-(2-fluoro-4-(3-methyl-3-(methylsulfonyl)but-1-yn-1-yl)benzyl)-N′,1-dimethyl-1H-pyrazolo[4,3-c]quinoline-8-carbohydrazide] are 8.30 to 9.00, 35 and 100 to 1000 nM.
The corresponding values for `CC(=O)N(C)N(Cc1ccc(C#CC2(C(F)F)CC2)cc1F)C(=O)c1ccc2nc(N)c3cnn(C)c3c2c1` [Example 177, N′-acetyl-4-amino-N-(4-((1-(difluoromethyl)cyclopropyl)ethynyl)-2-fluorobenzyl)-N′,1-dimethyl-1H-pyrazolo[4,3-c]quinoline-8-carbohydrazide] are 8.30 to 9.00, 36 and below 100 nM.
As to `Cn1ncc2c(N)nc3ccc(C(=O)N(Cc4ccc(C(F)(F)F)cn4)N4CC(C(F)(F)F)OC4=O)cc3c21` (stereo not drawn) [Example 178, 4-amino-1-methyl-N-(2-oxo-5-(trifluoromethyl)oxazolidin-3-yl)-N-((5-(trifluoromethyl)pyridin-2-yl)methyl)-1H-pyrazolo[4,3-c]quinoline-8-carboxamide], in experiment [1], the negative-log EC50 (pEC50) was below 8.30 and the “EC50 selectivity (SDMA assay)” value was 138. The compound further registered a CC50 in experiment [2] of 100 to 1000 nM.
The corresponding values for `COCCN(C)N(Cc1ccc(C(F)(F)F)cn1)C(=O)c1ccc2nc(N)c3cnn(C)c3c2c1` [Example 179, 4-amino-N′-(2-methoxyethyl)-N′,1-dimethyl-N-((5-(trifluoromethyl)pyridin-2-yl)methyl)-1H-pyrazolo[4,3-c]quinoline-8-carbohydrazide] are above 9.00, 318 and below 100 nM.
For the compound `COCCN(C)N(Cc1ccc(C(F)(F)F)cn1)C(=O)c1cc2c(cc1F)nc(N)c1cnn(C)c12` [Example 180, 4-amino-7-fluoro-N′-(2-methoxyethyl)-N′,1-dimethyl-N-((5-(trifluoromethyl)pyridin-2-yl)methyl)-1H-pyrazolo[4,3-c]quinoline-8-carbohydrazide], in experiment [1], the negative logarithm of the EC50 (pEC50) was above 9.00 and the “EC50 selectivity (SDMA assay)” value turned out to be 50. In experiment [2], this compound showed a half-maximal cytotoxic concentration (CC50) below 100 nM.
For `CC(=O)N(C)N(Cc1ccccc1F)C(=O)c1ccc2nc(N)c3cnn(C)c3c2c1` [Example 181, N′-acetyl-4-amino-N-(2-fluorobenzyl)-N′,1-dimethyl-1H-pyrazolo[4,3-c]quinoline-8-carbohydrazide] the same measures were 8.30 to 9.00, 441 and 100 to 1000 nM.

The values above are taken from patent publication US20240254118A1, “PRMT5 INHIBITORS AND USES THEREOF” (Gilead Sciences, Inc., priority 2022, published 2024).
